Like-named read-outs stand apart in the source and are kept apart here.
Legend:
[1] = molecular target: T1, aldose reductase (Bos taurus, UniProt P16116); test: in vitro aldose reductase inhibition (modified Hayman and Kinoshita procedure, enzyme from bovine lens); assay type: biochemical; settings: for inhibition at 0.04 µM: 4 × 10^-8 M; for inhibition at 1 µM / inhibition at 0.1 µM: read-out: % inhibition In Vitro
T1 construct: preparation of the enzyme from bovine lens; from tissue; host or cells: bovine lens
Procedure: Only two minor reagent changes were made: (a) the rinsing mixture was an aqueous 5% (w/v) trichloroacetic acid solution and (b) the stock solution was prepared by dissolving 25 mg of dulcitol in 100 ml of an aqueous trichloroacetic acid solution. [N.B.: For each experiment the average value found in the tissue from rats fed the glucose diet was subtracted from the individual values found in the corresponding tissue in galactose-fed rats to obtain the amount of polyol accumulated.] […] In the present case the procedure of Hayman and Kinoshita was modified in that the final chromatography step was omitted in the preparation of the enzyme from bovine lens.

[2] = tested on: Galactitol Accumulation; test: lowering of galactitol (dulcitol) accumulation in tissues of galactosemic rats; assay type: in vivo, rat (Sprague-Dawley); settings: four days, vs untreated galactosemic rats; for % Lowering Galactitol Accumulation In Vivo, D: diaphragm
Excerpt: The aldose reductase inhibiting property of the compounds of this invention and the utilization of the compounds in preventing, diminishing and alleviating diabetic complications are demonstrable in experiments using galactosemic rats, see Dvornik et al., Science, 182, 1146 (1973). Such experiments are exemplified hereinbelow after the listing of the following general comments pertaining to these experiments:
(a) Four or more groups of six male rats, 50-70 g, Sprague-Dawley strain, were used. The first group, the control group, was fed a mixture of laboratory chow (rodent Laboratory Chow, Purina) and glucose at 20% (w/w %) concentration. An untreated galactosemic group was fed a similar diet in which galactose was substituted for glucose. The third group was fed a diet prepared by mixing a given amount of the test compound with the galactose containing diet. The concentration of galactose in the diet of the treated groups was the same as that for the untreated galactosemic group.
(b) After four days, the animals were killed by euthanization. Both the lens and sciatic nerve were removed, weighed and stored frozen for polyol determination.
(c) The polyol determination was performed by a modification of the procedure of M. Kraml and L. Cosyns, Clin. Biochem., 2, 373 (1969). Only two minor reagent changes were made: (a) the rinsing mixture was an aqueous 5% (w/v) trichloroacetic acid solution and (b) the stock solution was prepared by dissolving 25 mg of dulcitol in 100 ml of an aqueous trichloroacetic acid solution. [N.B.: For each experiment the average value found in the tissue from rats fed the glucose diet was subtracted from the individual values found in the corresponding tissue in galactose-fed rats to obtain the amount of polyol accumulated.] The aldose reductase inhibiting effects of the compounds of formula (I) were also tested by employing an in vitro testing procedure similar to that described by S. Hayman and J. H. Kinoshita, J. Biol. Chem., 240, 877 (1965). In the present case the procedure of Hayman and Kinoshita was modified in that the final chromatography step was omitted in the preparation of the enzyme from bovine lens.
The figures under L, N, and D represent the percentage decrease of dulcitol accumulation in the tissues of the lens, sciatic nerve, and diaphragm, respectively, for treated rats as compared to untreated rats.

inhibition at 0.1 µM ([1]; 10^-7 M) [%] | SMILES | inhibition at 0.04 µM [1] [%] | inhibition at 1 µM ([1]; 10^-6 M) [%] | inhibition at 0.1 µM [1] [%] | % Lowering Galactitol Accumulation In Vivo, D ([2]; 0.5 mg/kg/day in diet) [%] | % Lowering Galactitol Accumulation In Vivo, D ([2]; 1.1 mg/kg/day in diet) [%] | % Lowering Galactitol Accumulation In Vivo, L ([2]; lens, 1.1 mg/kg/day in diet) [%] | % Lowering Galactitol Accumulation In Vivo, D ([2]; 1.0 mg/kg/day in diet) [%] | inhibition at 1 µM [1] [%] | % Lowering Galactitol Accumulation In Vivo, D ([2]; 4.6 mg/kg/day in diet) [%]
– | O=C1CC2(C(=O)N1)C(=O)N(Cc1nc3cc(C(F)(F)F)ccc3s1)C(=O)c1ccccc12 (centres unmarked) [R^1=H, R^3=CF3, 2-[[5-(Trifluoromethyl)-2-benzothiazolyl]methyl]spiro[isoquinoline-4-(1H),3'-pyrrolidine]-1,2',3,5'(2H)-tetrone] | 90 | 95 | 93 | 94 | 89 | 22 | – | – | –
– | O=C1CC2(C(=O)N1)C(=O)N(Cc1nc3cc(C(F)(F)F)ccc3s1)C(=O)c1ccc(F)cc12 (centres unmarked) [R^1=F, R^3=CF3, 6-Fluoro-2-[[5-(trifluoromethyl)-2-benzothiazolyl]methyl]spiro-[isoquinoline-4(1H),3'-pyrrolidine]-1,2',3,5'(2H)-tetrone] | 92 | 95 | 94 | – | – | – | 85 | – | –
92 | O=C1CC2(C(=O)N1)C(=O)N(Cc1nc3ccccc3s1)C(=O)c1ccccc12 (centres unmarked) [R^1=H, R^3=H, 2-(2-Benzothiazolylmethyl)spiro[isoquinoline-4(1H),3'-pyrrolidine)-1,2',3,5'(2H)-tetrone] | 81 | 97 | – | – | – | – | – | – | –
– | O=C1CC2(C(=O)N1)C(=O)N(Cc1nc3ccccc3s1)C(=O)c1ccc(F)cc12 (centres unmarked) [R^1=F, R^3=H, 2-(2-Benzothiazolylmethyl)-6-fluorospiro[isoquinoline-4(1H),3'-pyrrolidine]-1,2',3,5'(2H)-tetrone] | 91 | – | 94 | – | – | – | – | 96 | 93
